In PubChem BioAssay (NCI):
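Assay format: 96-well plates, 48-hour exposure. TGI: total growth inhibition.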

Assays:
Test in all cases: growth of human tumour cells (NCI), 48 h
M14 melanoma = tested on: M14 melanoma
A498 renal = tested on: A498 renal
EKVX NSCLC = tested on: EKVX NSCLC
K-562 leukemia = tested on: K-562 leukemia
UACC-257 melanoma = tested on: UACC-257 melanoma
U251 CNS = tested on: U251 CNS
SW-620 colon = tested on: SW-620 colon
ACHN renal = tested on: ACHN renal
MDA-MB-435 = tested on: MDA-MB-435
OVCAR-3 ovarian = tested on: OVCAR-3 ovarian
NCI/ADR-RES ovarian = tested on: NCI/ADR-RES ovarian
COLO 205 colon = tested on: COLO 205 colon
SF-268 CNS = tested on: SF-268 CNS
DU-145 prostate = tested on: DU-145 prostate
SK-MEL-28 melanoma = tested on: SK-MEL-28 melanoma
CAKI-1 renal = tested on: CAKI-1 renal
SF-539 CNS = tested on: SF-539 CNS
HCT-116 colon = tested on: HCT-116 colon
HOP-62 NSCLC = tested on: HOP-62 NSCLC
HS 578T breast = tested on: HS 578T breast
MDA-N = tested on: MDA-N
SK-OV-3 ovarian = tested on: SK-OV-3 ovarian
OVCAR-5 ovarian = tested on: OVCAR-5 ovarian
SNB-19 CNS = tested on: SNB-19 CNS
UACC-62 melanoma = tested on: UACC-62 melanoma
HOP-92 NSCLC = tested on: HOP-92 NSCLC
HT29 colon = tested on: HT29 colon
OVCAR-4 ovarian = tested on: OVCAR-4 ovarian
BT-549 breast = tested on: BT-549 breast
CCRF-CEM leukemia = tested on: CCRF-CEM leukemia
NCI-H522 lung = tested on: NCI-H522 lung
RPMI-8226 leukemia = tested on: RPMI-8226 leukemia
A549 NSCLC = tested on: A549 NSCLC
NCI-H23 lung = tested on: NCI-H23 lung
HCC-2998 colon = tested on: HCC-2998 colon
KM12 colon = tested on: KM12 colon
MDA-MB-231 breast = tested on: MDA-MB-231 breast
LOX IMVI melanoma = tested on: LOX IMVI melanoma
SK-MEL-5 melanoma = tested on: SK-MEL-5 melanoma
MOLT-4 leukemia = tested on: MOLT-4 leukemia
SK-MEL-2 melanoma = tested on: SK-MEL-2 melanoma
SF-295 CNS = tested on: SF-295 CNS
PC-3 prostate = tested on: PC-3 prostate
RXF 393 renal = tested on: RXF 393 renal
IGROV1 ovarian = tested on: IGROV1 ovarian
UO-31 renal = tested on: UO-31 renal
TK-10 renal = tested on: TK-10 renal
MALME-3M melanoma = tested on: MALME-3M melanoma
NCI-H226 lung = tested on: NCI-H226 lung
HL-60(TB) leukemia = tested on: HL-60(TB) leukemia
OVCAR-8 ovarian = tested on: OVCAR-8 ovarian
SN12C renal = tested on: SN12C renal
MCF7 breast = tested on: MCF7 breast
SR leukemia = tested on: SR leukemia
HCT-15 colon = tested on: HCT-15 colon
786-0 renal = tested on: 786-0 renal
SNB-75 CNS = tested on: SNB-75 CNS
NCI-H460 lung = tested on: NCI-H460 lung

Clc1ccc(C2=NN=C3C(c4ccccc4)=Nc4ccccc4N3C2)cc1
TGI (M14 melanoma): > 25.8 µM
TGI (A498 renal): > 100 µM
TGI (EKVX NSCLC): > 27.1 µM
TGI (K-562 leukemia): > 100 µM
TGI (UACC-257 melanoma): > 100 µM
TGI (U251 CNS): > 100 µM
TGI (SW-620 colon): > 100 µM
TGI (ACHN renal): > 100 µM
TGI (MDA-MB-435): > 100 µM
TGI (OVCAR-3 ovarian): > 20.1 µM
TGI (NCI/ADR-RES ovarian): > 100 µM
TGI (COLO 205 colon): > 100 µM
TGI (SF-268 CNS): > 93.9 µM
TGI (DU-145 prostate): > 41.9 µM
TGI (SK-MEL-28 melanoma): > 100 µM
TGI (CAKI-1 renal): > 100 µM
TGI (SF-539 CNS): > 100 µM
TGI (HCT-116 colon): > 100 µM
TGI (HOP-62 NSCLC): > 100 µM
TGI (HS 578T breast): 31.6 µM
TGI (MDA-N): > 100 µM
TGI (SK-OV-3 ovarian): > 100 µM
TGI (OVCAR-5 ovarian): > 30.6 µM
TGI (SNB-19 CNS): > 100 µM
TGI (UACC-62 melanoma): > 100 µM
TGI (HOP-92 NSCLC): > 93.2 µM
TGI (HT29 colon): > 25.8 µM
TGI (OVCAR-4 ovarian): > 43.9 µM
TGI (BT-549 breast): > 100 µM
TGI (CCRF-CEM leukemia): 15.2 µM
TGI (NCI-H522 lung): 8.17 µM
TGI (RPMI-8226 leukemia): > 29.4 µM
TGI (A549 NSCLC): > 100 µM
TGI (NCI-H23 lung): > 100 µM
TGI (HCC-2998 colon): > 100 µM
TGI (KM12 colon): > 100 µM
TGI (MDA-MB-231 breast): > 100 µM
TGI (LOX IMVI melanoma): > 100 µM
TGI (SK-MEL-5 melanoma): 16.5 µM
TGI (MOLT-4 leukemia): > 23.2 µM
TGI (SK-MEL-2 melanoma): > 100 µM
TGI (SF-295 CNS): > 100 µM
TGI (PC-3 prostate): > 100 µM
TGI (RXF 393 renal): > 46.2 µM
TGI (IGROV1 ovarian): > 100 µM
TGI (UO-31 renal): > 80 µM
TGI (TK-10 renal): > 50.2 µM
TGI (MALME-3M melanoma): > 82 µM
TGI (NCI-H226 lung): > 100 µM
TGI (HL-60(TB) leukemia): 17.6 µM
TGI (OVCAR-8 ovarian): > 100 µM
TGI (SN12C renal): > 100 µM
TGI (MCF7 breast): > 100 µM
TGI (SR leukemia): > 21.9 µM
TGI (HCT-15 colon): > 100 µM
TGI (786-0 renal): > 100 µM

CN(C)c1ccc(C=NCC2CCCN3CCCCC23)cc1 (configuration not stated)
TGI (M14 melanoma): > 100 µM
TGI (EKVX NSCLC): > 100 µM
TGI (UACC-257 melanoma): > 100 µM
TGI (ACHN renal): > 100 µM
TGI (OVCAR-3 ovarian): > 100 µM
TGI (NCI/ADR-RES ovarian): > 100 µM
TGI (COLO 205 colon): > 100 µM
TGI (SF-268 CNS): > 100 µM
TGI (SNB-75 CNS): > 100 µM
TGI (DU-145 prostate): > 100 µM
TGI (CAKI-1 renal): > 100 µM
TGI (HCT-116 colon): > 100 µM
TGI (HOP-62 NSCLC): > 100 µM
TGI (HS 578T breast): > 100 µM
TGI (MDA-N): > 100 µM
TGI (SK-OV-3 ovarian): > 100 µM
TGI (OVCAR-5 ovarian): > 100 µM
TGI (NCI-H460 lung): > 100 µM
TGI (SNB-19 CNS): > 100 µM
TGI (UACC-62 melanoma): > 100 µM
TGI (BT-549 breast): > 100 µM
TGI (NCI-H522 lung): > 100 µM
TGI (A549 NSCLC): > 100 µM
TGI (NCI-H23 lung): > 100 µM
TGI (HCC-2998 colon): > 100 µM
TGI (KM12 colon): > 100 µM
TGI (MDA-MB-231 breast): > 100 µM
TGI (LOX IMVI melanoma): > 100 µM
TGI (SK-MEL-5 melanoma): > 100 µM
TGI (SF-295 CNS): > 100 µM
TGI (PC-3 prostate): > 100 µM
TGI (RXF 393 renal): > 100 µM
TGI (IGROV1 ovarian): > 100 µM
TGI (UO-31 renal): > 100 µM
TGI (TK-10 renal): > 100 µM
TGI (MALME-3M melanoma): > 100 µM
TGI (NCI-H226 lung): > 100 µM
TGI (OVCAR-8 ovarian): > 100 µM
TGI (MCF7 breast): > 100 µM
TGI (HCT-15 colon): > 100 µM
TGI (786-0 renal): > 100 µM
